In ChEMBL document CHEMBL6134890, “Terminally Symmetric β-Turn Peptides for Multidrug-Resistant Bacterial Infections” (J Med Chem, 2025):
≈ marks a conversion by molar mass, not a printed value. Peptide text beside a SMILES is read from it.

Assays:
[1] = tested on: Staphylococcus epidermidis; test: Antimicrobial activity against multi-drug resistant Staphylococcus epidermidis assessed as reduction in bacterial growth by broth dilution method; assay type: functional
[2] = tested on: BEAS-2B; test: Cytotoxicity against human BEAS-2B cells at 2 to 256 uM measured after 24 hrs by CCK-8 method; assay type: toxicity, cell-based; settings: dose 2-256 µM
[3] = tested on: Staphylococcus aureus; test: Antimicrobial activity against multi-drug resistant Staphylococcus aureus assessed as reduction in bacterial growth by broth dilution method; assay type: functional
[4] = tested on: Klebsiella pneumoniae; test: Antimicrobial activity against multi-drug resistant Klebsiella pneumoniae assessed as reduction in bacterial growth by broth dilution method; assay type: functional
[5] = tested on: Escherichia coli; test: Antimicrobial activity against Escherichia coli ATCC 25922 assessed as reduction in bacterial growth by broth dilution method; assay type: functional
[6] = tested on: L02; test: Cytotoxicity against human LO2 cells at 2 to 256 uM measured after 24 hrs by CCK-8 method; assay type: toxicity, cell-based; settings: l02, 24 h, dose 2-256 µM
[7] = tested on: Acinetobacter baumannii; test: Antimicrobial activity against multi-drug resistant Acinetobacter baumannii assessed as reduction in bacterial growth by broth dilution method; assay type: functional
[8] = tested on: HEK-293T; test: Cytotoxicity against HEK293T cells at 2 to 256 uM measured after 24 hrs by CCK-8 method; assay type: toxicity, cell-based; settings: human, dose 2-256 µM
[9] = tested on: Escherichia coli; test: Antimicrobial activity against multi-drug resistant Escherichia coli assessed as reduction in bacterial growth by broth dilution method; assay type: functional
[10] = tested on: Staphylococcus aureus; test: Antimicrobial activity against Staphylococcus aureus ATCC 25923 assessed as reduction in bacterial growth by broth dilution method; assay type: functional
[11] = tested on: Enterococcus faecalis; test: Antimicrobial activity against multi-drug resistant Enterococcus faecalis assessed as reduction in bacterial growth by broth dilution method; assay type: functional
[12] = Hemolytic activity in human Red blood cell assessed as hemolysis incubated for 1 hrs by microplate reader based analysis; assay type: toxicity; settings: erythrocyte

Structure (SMILES)	MIC [1] [µM]	Activity [2]	MIC [3] [µM]	MIC [4] [µM]	MIC [5] [µM]	Activity [6]	MIC [7] [µM]	Activity [8]	MIC [9] [µM]	MIC [10] [µM]	MIC [11] [µM]	HC10 [12] [µM]
NCCCC[C@H](NC(=O)[C@H](Cc1ccccc1)NC(=O)[C@H](CCCCN)NC(=O)[C@H](Cc1ccccc1)NC(=O)[C@H](CCCCN)NC(=O)[C@@H]1CCCN1C(=O)[C@H](Cc1c[nH]c2ccccc12)NC(=O)[C@H](Cc1c[nH]c2ccccc12)NC(=O)[C@H](Cc1c[nH]c2ccccc12)NC(=O)[C@@H]1CCCN1C(=O)[C@H](CCCCN)NC(=O)[C@H](Cc1ccccc1)NC(=O)[C@H](CCCCN)NC(=O)[C@H](Cc1ccccc1)NC(=O)[C@@H](N)CCCCN)C(N)=O (H-KFKFKPWWWPKFKFK-NH2)	4 (≈ 8.51 µg/mL)	Toxic	4 (≈ 8.51 µg/mL)	4 (≈ 8.51 µg/mL)	2 (≈ 4.26 µg/mL)	Toxic	4 (≈ 8.51 µg/mL)	Toxic	4 (≈ 8.51 µg/mL)	4 (≈ 8.51 µg/mL)	2 (≈ 4.26 µg/mL)	> 256
CC(C)C[C@H](NC(=O)[C@H](CCCCN)NC(=O)[C@H](CC(C)C)NC(=O)[C@H](CCCCN)NC(=O)[C@H](Cc1ccccc1)NC(=O)[C@@H]1CCCN1C(=O)[C@H](Cc1c[nH]c2ccccc12)NC(=O)[C@H](Cc1c[nH]c2ccccc12)NC(=O)[C@H](Cc1c[nH]c2ccccc12)NC(=O)[C@@H]1CCCN1C(=O)[C@H](Cc1ccccc1)NC(=O)[C@H](CCCCN)NC(=O)[C@H](CC(C)C)NC(=O)[C@H](CCCCN)NC(=O)[C@H](CC(C)C)NC(=O)[C@@H](N)CCCCN)C(=O)N[C@@H](CCCCN)C(N)=O (H-KLKLKFPWWWPFKLKLK-NH2)	4 (≈ 9.14 µg/mL)		4 (≈ 9.14 µg/mL)	8 (≈ 18.3 µg/mL)	8 (≈ 18.3 µg/mL)		8 (≈ 18.3 µg/mL)		8 (≈ 18.3 µg/mL)	8 (≈ 18.3 µg/mL)	8 (≈ 18.3 µg/mL)	38.84
CC(C)[C@H](NC(=O)[C@H](CCCCN)NC(=O)[C@@H](NC(=O)[C@H](CCCCN)NC(=O)[C@H](Cc1ccccc1)NC(=O)[C@@H]1CCCN1C(=O)[C@H](Cc1c[nH]c2ccccc12)NC(=O)[C@H](Cc1c[nH]c2ccccc12)NC(=O)[C@H](Cc1c[nH]c2ccccc12)NC(=O)[C@@H]1CCCN1C(=O)[C@H](Cc1ccccc1)NC(=O)[C@H](CCCCN)NC(=O)[C@@H](NC(=O)[C@H](CCCCN)NC(=O)[C@@H](NC(=O)[C@@H](N)CCCCN)C(C)C)C(C)C)C(C)C)C(=O)N[C@@H](CCCCN)C(N)=O (H-KVKVKFPWWWPFKVKVK-NH2)	4 (≈ 8.92 µg/mL)	Toxic	8 (≈ 17.8 µg/mL)	16 (≈ 35.7 µg/mL)	4 (≈ 8.92 µg/mL)	Toxic	8 (≈ 17.8 µg/mL)	Toxic	4 (≈ 8.92 µg/mL)	8 (≈ 17.8 µg/mL)	4 (≈ 8.92 µg/mL)	243.97
CC(C)[C@H](NC(=O)[C@H](CCCCN)NC(=O)[C@@H](NC(=O)[C@H](CCCCN)NC(=O)[C@@H]1CCCN1C(=O)[C@H](Cc1c[nH]c2ccccc12)NC(=O)[C@H](Cc1c[nH]c2ccccc12)NC(=O)[C@H](Cc1c[nH]c2ccccc12)NC(=O)[C@@H]1CCCN1C(=O)[C@H](CCCCN)NC(=O)[C@@H](NC(=O)[C@H](CCCCN)NC(=O)[C@@H](NC(=O)[C@@H](N)CCCCN)C(C)C)C(C)C)C(C)C)C(=O)N[C@@H](CCCCN)C(N)=O (H-KVKVKPWWWPKVKVK-NH2)	32 (≈ 61.9 µg/mL)		64 (≈ 124 µg/mL)	32 (≈ 61.9 µg/mL)	32 (≈ 61.9 µg/mL)		64 (≈ 124 µg/mL)		32 (≈ 61.9 µg/mL)	64 (≈ 124 µg/mL)	32 (≈ 61.9 µg/mL)	> 256
NCCCC[C@H](NC(=O)[C@H](Cc1c[nH]c2ccccc12)NC(=O)[C@H](CCCCN)NC(=O)[C@H](Cc1c[nH]c2ccccc12)NC(=O)[C@H](Cc1ccccc1)NC(=O)[C@@H]1CCCN1C(=O)[C@H](Cc1c[nH]c2ccccc12)NC(=O)[C@H](Cc1c[nH]c2ccccc12)NC(=O)[C@H](Cc1c[nH]c2ccccc12)NC(=O)[C@@H]1CCCN1C(=O)[C@H](Cc1ccccc1)NC(=O)[C@H](Cc1c[nH]c2ccccc12)NC(=O)[C@H](CCCCN)NC(=O)[C@H](Cc1c[nH]c2ccccc12)NC(=O)[C@@H](N)CCCCN)C(N)=O (H-KWKWFPWWWPFWKWK-NH2)	16 (≈ 37.1 µg/mL)		4 (≈ 9.29 µg/mL)	256 (≈ 594 µg/mL)	32 (≈ 74.3 µg/mL)		64 (≈ 149 µg/mL)		64 (≈ 149 µg/mL)	4 (≈ 9.29 µg/mL)	16 (≈ 37.1 µg/mL)	7.46
NCCCC[C@H](NC(=O)[C@H](Cc1c[nH]c2ccccc12)NC(=O)[C@H](CCCCN)NC(=O)[C@H](Cc1c[nH]c2ccccc12)NC(=O)[C@H](CCCCN)NC(=O)[C@H](Cc1ccccc1)NC(=O)[C@@H]1CCCN1C(=O)[C@H](Cc1c[nH]c2ccccc12)NC(=O)[C@H](Cc1c[nH]c2ccccc12)NC(=O)[C@H](Cc1c[nH]c2ccccc12)NC(=O)[C@@H]1CCCN1C(=O)[C@H](Cc1ccccc1)NC(=O)[C@H](CCCCN)NC(=O)[C@H](Cc1c[nH]c2ccccc12)NC(=O)[C@H](CCCCN)NC(=O)[C@H](Cc1c[nH]c2ccccc12)NC(=O)[C@@H](N)CCCCN)C(N)=O (H-KWKWKFPWWWPFKWKWK-NH2)	8 (≈ 20.6 µg/mL)		8 (≈ 20.6 µg/mL)	8 (≈ 20.6 µg/mL)	8 (≈ 20.6 µg/mL)		8 (≈ 20.6 µg/mL)		4 (≈ 10.3 µg/mL)	4 (≈ 10.3 µg/mL)	8 (≈ 20.6 µg/mL)	2.1
